Laboratory results published in ChEMBL document CHEMBL3758174, “Discovery and Characterization of 2-Acylaminoimidazole Microsomal Prostaglandin E Synthase-1 Inhibitors” (J Med Chem, 2016).
≈ marks a conversion by molar mass, not a printed value. Calls of active or inactive are those of the source. The rule behind the calls is not given here.

Legend:
CYP3A4 [1] = molecular target: T1, CYP3A4 (Homo sapiens, UniProt P08684); test: Time-dependent inhibition of microsomal CYP3A4 (unknown origin) using midazolam as substrate assessed as alpha-hydroxymidazolam-d4 at 10 uM pre-incubated for 12 mins before NADPH addition formation after 30 mins by LC-MS/MS analysis; type: ADME; conditions: microsomes, probe midazolam
T1 sequence (P08684 whole entry): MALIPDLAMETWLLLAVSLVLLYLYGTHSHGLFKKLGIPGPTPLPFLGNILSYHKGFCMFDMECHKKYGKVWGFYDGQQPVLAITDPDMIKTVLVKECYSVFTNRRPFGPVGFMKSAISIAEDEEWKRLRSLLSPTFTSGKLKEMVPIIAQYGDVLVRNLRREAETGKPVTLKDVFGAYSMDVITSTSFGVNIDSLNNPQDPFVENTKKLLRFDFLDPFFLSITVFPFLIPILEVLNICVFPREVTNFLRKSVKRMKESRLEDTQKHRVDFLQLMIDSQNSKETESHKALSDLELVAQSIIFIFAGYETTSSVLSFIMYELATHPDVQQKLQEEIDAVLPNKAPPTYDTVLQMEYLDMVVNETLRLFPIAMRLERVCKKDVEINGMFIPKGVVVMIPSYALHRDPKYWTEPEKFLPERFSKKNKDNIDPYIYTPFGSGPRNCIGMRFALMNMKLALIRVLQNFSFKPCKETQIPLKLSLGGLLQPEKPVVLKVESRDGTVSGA

CYP3A4 [2] = molecular target: T1, CYP3A4; test: Inhibition of microsomal CYP3A4 (unknown origin) using bufuralol/midazolam/diclofinac as substrate assessed as 1-hydroxybufuralol maleate-d9/alpha-hydroxymidazolam-d4/[13C6]-4-hydroxydiclofinac formation at 10 uM pre-incubated for 10 mins before NADPH addition by LC-MS/MS analysis; type: ADME; conditions: microsomes, probe bufuralol/midazolam/diclofinac
Prostaglandin E synthase [3] = molecular target: T2, Prostaglandin E synthase (Homo sapiens, UniProt O14684); test: Inhibition of mPGES1 in rhIL-1beta-stimulated human A549 cells assessed as PGE2 level treated for 18 hrs after 30 mins pre-incubation with rhIL-1beta by EIA method; type: cell-based
T2 sequence (O14684 whole entry): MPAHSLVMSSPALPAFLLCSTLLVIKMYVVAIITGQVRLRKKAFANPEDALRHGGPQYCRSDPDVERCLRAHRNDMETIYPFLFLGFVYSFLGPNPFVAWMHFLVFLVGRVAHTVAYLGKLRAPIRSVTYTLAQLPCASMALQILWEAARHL

Prostaglandin E synthase [4] = molecular target: T2, Prostaglandin E synthase; test: Inhibition of human microsomal PGES1 expressed in 293E cells by LC/MS/MS analysis; type: cell-based
[5] = molecular target: T3, Prostaglandin E synthase (Homo sapiens) (UniProt O14684); test: (§1) Inhibition of mPGES1 in LPS-induced human whole blood assessed as suppression of PGE2 response after 20 to 24 hrs by LC-MS/MS analysis; type: tissue-based
T3 sequence (whole entry): T2 sequence (O14684 whole entry)

Prostaglandin E synthase [6] = molecular target: T2, Prostaglandin E synthase; test: as §1; type: tissue-based
[7] = molecular target: T4, Cyclooxygenase (Homo sapiens) (UniProt P35354+P23219); test: Inhibition of COX in human A549 cells assessed as reduction in PGE2 production; type: cell-based
T4 sequence (P23219 whole entry, looked up, one chain of several): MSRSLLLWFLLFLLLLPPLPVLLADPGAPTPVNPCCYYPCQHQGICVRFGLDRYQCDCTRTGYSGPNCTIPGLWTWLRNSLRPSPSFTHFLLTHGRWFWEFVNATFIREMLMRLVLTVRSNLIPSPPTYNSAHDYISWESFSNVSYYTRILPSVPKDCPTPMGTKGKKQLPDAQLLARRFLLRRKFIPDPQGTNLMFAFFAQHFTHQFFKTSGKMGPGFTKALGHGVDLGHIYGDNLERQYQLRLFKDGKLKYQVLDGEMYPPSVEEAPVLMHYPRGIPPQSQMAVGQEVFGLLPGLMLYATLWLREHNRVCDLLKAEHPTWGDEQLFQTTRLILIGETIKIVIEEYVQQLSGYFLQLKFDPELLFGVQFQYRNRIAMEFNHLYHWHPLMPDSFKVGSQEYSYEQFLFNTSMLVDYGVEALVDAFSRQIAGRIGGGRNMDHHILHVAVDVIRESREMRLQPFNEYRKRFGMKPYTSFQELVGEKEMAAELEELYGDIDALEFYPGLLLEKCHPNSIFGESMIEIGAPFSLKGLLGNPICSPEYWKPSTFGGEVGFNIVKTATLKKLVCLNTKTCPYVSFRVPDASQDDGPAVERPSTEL

[8] = molecular target: T4, Cyclooxygenase (Homo sapiens); test: Inhibition of COX in human whole blood assessed as decrease in TXB2 production; type: tissue-based
[9] = molecular target: T4, Cyclooxygenase (Homo sapiens); test: Inhibition of COX in human whole blood assessed as decrease in PGF2alpha production; type: tissue-based
[10] = Oral bioavailability in beagle dog at 0.5 mg/kg after 0.25 to 24 hrs by LC-MS/MS analysis; type: ADME, organism-based, Canis lupus familiaris; conditions: in vivo
[11] = Inhibition of rat microsomal PGES1 expressed in 293E cells by LC/MS/MS analysis; type: cell-based
[12] = molecular target: T4, Cyclooxygenase (Homo sapiens); test: Inhibition of COX in human A549 cells assessed as reduction in PGE2 production at 10 uM; type: cell-based
hERG [13] = molecular target: T5, hERG (Homo sapiens, UniProt Q12809); test: Inhibition of human ERG at 100 uM
T5 sequence (Q12809 whole entry): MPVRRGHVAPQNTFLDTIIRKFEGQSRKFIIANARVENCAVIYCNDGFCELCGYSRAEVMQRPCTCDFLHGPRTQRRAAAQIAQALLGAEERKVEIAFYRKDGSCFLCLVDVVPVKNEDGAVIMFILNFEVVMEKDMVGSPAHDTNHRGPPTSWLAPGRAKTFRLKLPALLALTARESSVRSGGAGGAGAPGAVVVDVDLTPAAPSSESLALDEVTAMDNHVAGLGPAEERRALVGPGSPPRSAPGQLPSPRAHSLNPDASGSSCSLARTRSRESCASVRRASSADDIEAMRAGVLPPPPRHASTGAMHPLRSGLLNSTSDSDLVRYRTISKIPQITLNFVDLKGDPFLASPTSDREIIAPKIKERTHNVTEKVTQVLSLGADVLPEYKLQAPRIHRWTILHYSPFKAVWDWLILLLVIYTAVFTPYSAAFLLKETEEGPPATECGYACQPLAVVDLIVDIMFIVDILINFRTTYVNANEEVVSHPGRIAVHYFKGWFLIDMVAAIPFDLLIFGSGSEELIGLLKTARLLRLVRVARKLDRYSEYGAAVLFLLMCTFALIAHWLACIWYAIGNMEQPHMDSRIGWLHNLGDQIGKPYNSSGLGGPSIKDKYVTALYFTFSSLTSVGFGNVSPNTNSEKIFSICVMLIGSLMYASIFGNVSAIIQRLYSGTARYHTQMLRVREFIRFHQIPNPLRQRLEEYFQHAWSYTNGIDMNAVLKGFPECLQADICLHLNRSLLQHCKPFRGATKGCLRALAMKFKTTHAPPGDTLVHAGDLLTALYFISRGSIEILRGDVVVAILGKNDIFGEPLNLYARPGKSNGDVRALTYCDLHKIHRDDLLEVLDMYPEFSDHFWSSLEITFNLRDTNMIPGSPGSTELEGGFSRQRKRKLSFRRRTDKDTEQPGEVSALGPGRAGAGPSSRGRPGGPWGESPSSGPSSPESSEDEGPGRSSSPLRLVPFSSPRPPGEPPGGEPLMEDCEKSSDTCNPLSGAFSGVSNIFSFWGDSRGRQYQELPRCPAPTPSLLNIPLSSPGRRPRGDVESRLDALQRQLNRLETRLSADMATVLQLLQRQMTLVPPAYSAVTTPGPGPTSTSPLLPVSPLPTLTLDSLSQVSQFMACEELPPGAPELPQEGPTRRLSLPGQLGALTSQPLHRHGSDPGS

[14] = molecular target: T4, Cyclooxygenase (Homo sapiens); test: Inhibition of COX in human whole blood assessed as decrease in TXB2 production up to 30 uM; type: tissue-based
hERG [15] = molecular target: T5, hERG; test: Inhibition of human ERG at 10 uM
Plasma = test: Plasma concentration in beagle dog at 2 mg/kg, po after; type: ADME, organism-based, Canis lupus familiaris; conditions: in vivo
[16] = molecular target: Prostaglandin G/H synthase 1 (Homo sapiens) (UniProt P23219); test: Inhibition of COX1 (unknown origin) at 100 uM
Sequence of Prostaglandin G/H synthase 1 (Homo sapiens) (P23219 whole entry): as the sequence (P23219 whole entry, looked up, one chain of several) above

[17] = molecular target: T6, Prostaglandin E synthase (Canis lupus familiaris) (UniProt A0SYQ0); test: (§2) Inhibition of mPGES1 in LPS-induced dog whole blood assessed as suppression of PGE2 response pre-incubated for 30 mins followed by LPS addition and measured after 5 hrs by LC-MS/MS analysis; type: tissue-based
T6 sequence (whole entry): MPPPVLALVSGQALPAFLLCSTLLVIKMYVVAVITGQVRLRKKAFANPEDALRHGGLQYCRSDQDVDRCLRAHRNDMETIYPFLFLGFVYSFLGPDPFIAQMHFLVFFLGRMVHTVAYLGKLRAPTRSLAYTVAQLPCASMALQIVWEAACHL

Prostaglandin E synthase [18] = molecular target: T7, Prostaglandin E synthase (Canis lupus familiaris, UniProt A0SYQ0); test: as §2; type: tissue-based
T7 sequence (A0SYQ0 whole entry): T6 sequence (whole entry)

[19] = Plasma concentration in beagle dog at 2 mg/kg, po after 24 hrs by LC-MS/MS analysis; type: ADME, organism-based, Canis lupus familiaris
[20] = molecular target: Voltage-gated inwardly rectifying potassium channel KCNH2 (Homo sapiens, UniProt Q12809); test: Inhibition of human ERG
Sequence of Voltage-gated inwardly rectifying potassium channel KCNH2 (Q12809 whole entry): as the sequence (Q12809 whole entry) above

[21] = Oral bioavailability in beagle dog at 2 mg/kg after 0.25 to 24 hrs by LC-MS/MS analysis; type: ADME, organism-based, Canis lupus familiaris; conditions: in vivo
[22] = Solubility of compound in FasSIF at 2 mg at room temperature after 24 hrs by HPLC analysis; type: physicochemical
[23] = molecular target: T8, Prostaglandin G/H synthase 2 (Homo sapiens) (UniProt P35354); test: Inhibition of COX2 (unknown origin) at 30 uM
T8 sequence (whole entry): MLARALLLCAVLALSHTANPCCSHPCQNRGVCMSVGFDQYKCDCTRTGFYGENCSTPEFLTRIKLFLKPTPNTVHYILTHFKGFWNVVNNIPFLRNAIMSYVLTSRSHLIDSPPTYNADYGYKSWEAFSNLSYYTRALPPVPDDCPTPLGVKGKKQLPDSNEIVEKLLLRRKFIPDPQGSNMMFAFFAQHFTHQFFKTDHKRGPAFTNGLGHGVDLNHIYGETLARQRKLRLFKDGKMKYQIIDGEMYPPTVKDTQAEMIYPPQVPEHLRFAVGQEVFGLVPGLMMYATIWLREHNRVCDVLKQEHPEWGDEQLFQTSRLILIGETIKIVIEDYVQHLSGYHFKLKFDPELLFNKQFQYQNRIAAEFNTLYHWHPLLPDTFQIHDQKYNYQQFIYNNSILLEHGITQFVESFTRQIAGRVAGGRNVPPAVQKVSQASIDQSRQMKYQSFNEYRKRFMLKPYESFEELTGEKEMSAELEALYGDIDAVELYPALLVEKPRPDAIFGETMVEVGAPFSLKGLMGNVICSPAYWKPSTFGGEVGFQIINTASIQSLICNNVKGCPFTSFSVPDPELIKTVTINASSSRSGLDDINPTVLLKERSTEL

[24] = Stability of compound at 40 degC/75% RH; type: physicochemical
[25] = Stability of compound at 70 degC/75% RH; type: physicochemical
[26] = molecular target: Prostaglandin G/H synthase 1 (Homo sapiens) (UniProt P23219); test: Inhibition of COX-1 (unknown origin) at 10 uM
[27] = molecular target: T8, Prostaglandin G/H synthase 2 (Homo sapiens); test: Inhibition of COX-2 (unknown origin) at 10 uM
[28] = Clearance in beagle dog at 2 mg/kg,po or 0.5 mg/kg, iv after 0.25 to 24 hrs by LC-MS/MS analysis; type: ADME, organism-based, Canis lupus familiaris; conditions: in vivo
[29] = Volume of distribution at steady state in beagle dog at 2 mg/kg,po or 0.5 mg/kg, iv after 0.25 to 24 hrs by LC-MS/MS analysis; type: ADME, organism-based, Canis lupus familiaris; conditions: in vivo, read-out: Vdss
[30] = Tmax in beagle dog at 2 mg/kg,po after 0.25 to 24 hrs by LC-MS/MS analysis; type: ADME, organism-based, Canis lupus familiaris; conditions: in vivo

Row | SMILES | inhibition at 0.5 h, 10 µM (CYP3A4 [1]) | inhibition at 10 µM (CYP3A4 [2]) | IC50 (Prostaglandin E synthase [3]) | IC50 (Prostaglandin E synthase [4]) | IC80 [5] | IC50 (Prostaglandin E synthase [6]) | inhibition [12] | inhibition [14] | further results
1 | CC(=O)NCc1cnc(C(F)F)c(C(=O)Nc2nc(C)c(-c3ccc(C(F)(F)F)cc3)[nH]2)c1 | 8% | 19% | 0.72 µM | 0.074 µM |  |  |  |  | 
2 | CC(C)C(=O)NCc1cnc(C(F)F)c(C(=O)Nc2ncc(-c3ccc(Cl)cc3)[nH]2)c1 | 72% | 22% | 0.037 µM | < 0.003 µM | 0.146 µM | 0.029 µM |  |  | inhibition [7]: inactive; inhibition [8]: inactive; inhibition [9]: inactive
3 | Cc1nc(NC(=O)c2cc(CNC(=O)C(C)C)cnc2C(F)F)[nH]c1-c1ccc(C(F)(F)F)cc1 [listing 1 of 2 here] | 23% | 0% |  | 0.0009 µM |  |  |  |  | IC50 [11]: 33.9 µM; concentration at 24 h [19]: > 200 nM; IC50 [20]: 82.6 µM; Ki [20]: 41.3 µM; bioavailability [21]: 37%; solubility at 24 h [22]: 7 µg/mL (≈ 14.1 µM); IC50 (Prostaglandin E synthase [18]): 0.139 µM
4 | CC(C)(C)C(=O)NCc1ccc(C(F)F)c(C(=O)Nc2ncc[nH]2)c1 |  |  | 3.25 µM | 0.676 µM | 33.7 µM | 1.43 µM | inactive | inactive | 
5 | Cc1nc(NC(=O)c2cc(CNC(=O)C(C)C)cnc2C(F)F)[nH]c1-c1ccc(Cl)cc1 | 27% | 0% | 0.039 µM | < 0.003 µM | 0.48 µM | 0.091 µM |  |  | 
6 | Cc1nc(NC(=O)c2cc(CNC(=O)C(C)C)cnc2C(F)F)[nH]c1-c1ccc(C(F)(F)F)cc1.O=P(O)(O)O |  |  |  |  |  |  |  |  | Stability [24]: 4 weeks; Stability [25]: 2 weeks
7 | CC(C)(C)C(=O)NCc1ccc(C(F)(F)F)c(C(=O)Nc2ncc[nH]2)c1 |  |  | 3.23 µM | 1.08 µM | 10.5 µM | 2.14 µM | inactive | inactive | 
8 | Cc1c(CC(C)(C)C(=O)O)n(Cc2ccc(Cl)cc2)c2ccc(-c3ccc(-c4ccccc4)c(F)c3)cc12 |  | 46% |  |  |  |  |  |  | 
9 | CC(C)C(=O)NCc1ccc(C(F)F)c(C(=O)Nc2ncc(-c3ccc(Cl)cc3)[nH]2)c1 | 75% | 44% | 0.019 µM | < 0.003 µM | 0.994 µM | 0.338 µM |  |  | inhibition [7]: inactive; inhibition [8]: inactive; inhibition [9]: inactive
10 | CCC(=O)NCc1cnc(C(F)F)c(C(=O)Nc2nc(C)c(-c3ccc(C(F)(F)F)cc3)[nH]2)c1 | 15% | 0% | 0.098 µM | 0.0103 µM | 0.991 µM | 0.374 µM |  |  | 
11 | Cc1nc(NC(=O)c2cc(CNC(=O)C(C)C)cnc2C(F)F)[nH]c1-c1ccc(C(F)(F)F)cc1 [listing 2 of 2 here] |  |  |  |  | 0.069 µM |  |  |  | inhibition [26]: inactive; inhibition [27]: inactive; IC80 [17]: 0.703 µM
12 | N#Cc1cccc(C#N)c1-c1nc2c3ccc(Cl)cc3c3ccccc3c2[nH]1 |  | 32% |  |  |  |  |  |  | 
13 | CC[C@H](C)C(=O)NCc1ccc(C(F)F)c(C(=O)Nc2ncc[nH]2)c1 |  |  | 8.86 µM | 1.12 µM | 21.1 µM | 10.5 µM | inactive | inactive | 
14 | CC(C)(C)C(=O)NCc1ccc(Br)c(C(=O)Nc2ncc[nH]2)c1 |  |  |  |  |  |  | inactive | inactive | 

More lines, main results first:

Row | inhibition at 0.5 h, 10 µM (CYP3A4 [1]) | inhibition at 10 µM (CYP3A4 [2]) | IC50 (Prostaglandin E synthase [3]) | IC50 (Prostaglandin E synthase [4]) | IC80 [5] | IC50 (Prostaglandin E synthase [6]) | inhibition [12] | inhibition [14] | SMILES | further results
15 |  |  |  |  | 2.44 µM |  | inactive | inactive | CC(C)(C)C(=O)NCc1ccc(Cl)c(C(=O)Nc2ncc[nH]2)c1 [LY-3031207] | bioavailability [10]: 60%; IC50 [11]: > 1000 µM; inhibition at 100 µM (hERG [13]): 14%; inhibition at 10 µM (hERG [15]): -4%; concentration (Plasma): > 1000 nM; inhibition [16]: 9%; IC80 [17]: 1.84 µM; IC50 (Prostaglandin E synthase [18]): 0.555 µM
16 |  |  | > 10 µM | 3.67 µM | 57.4 µM | 9.53 µM | inactive | inactive | CC(C)C(=O)NCc1cc(C(=O)Nc2ncc[nH]2)c(Cl)cc1F | 
17 |  |  | 4.62 µM | 3.11 µM | 9.08 µM | 2.43 µM | inactive | inactive | Cc1ccc(CNC(=O)C(C)(C)C)cc1C(=O)Nc1ncc[nH]1 | inhibition [23]: 16%
18 |  |  |  |  | 8.8 µM |  | inactive | inactive | CC(C)C(=O)NCc1ccc(Cl)c(C(=O)Nc2ncc[nH]2)c1 | 
19 |  |  | 8.85 µM | 2.32 µM | 132 µM | 13 µM | inactive | inactive | Cc1cc(Cl)c(C(=O)Nc2ncc[nH]2)cc1CNC(=O)C(C)C | 
20 |  |  | 1.23 µM | 0.385 µM | 9.37 µM | 0.853 µM | inactive | inactive | CCC(C)(C)C(=O)NCc1ccc(Cl)c(C(=O)Nc2ncc[nH]2)c1 | 
21 | 20% |  | 3.15 µM | 2.46 µM | 31 µM | 4.61 µM | inactive | inactive | CC(C)C(=O)NCc1ccc(C(F)F)c(C(=O)Nc2ncc[nH]2)c1 | clearance [28]: 26.1 mL/min/kg; Vd [29]: 2.27 L/kg; Tmax [30]: 15 min; bioavailability [21]: 100%
